# Patent publication US20190292179A1 (BRISTOL-MYERS SQUIBB COMPANY, priority 2016, published 2019)
# Target: T1, HIS-TGFβR1 T204D (Homo sapiens, UniProt P36897, T204D)
# T1 sequence (P36897 34-503 T204D): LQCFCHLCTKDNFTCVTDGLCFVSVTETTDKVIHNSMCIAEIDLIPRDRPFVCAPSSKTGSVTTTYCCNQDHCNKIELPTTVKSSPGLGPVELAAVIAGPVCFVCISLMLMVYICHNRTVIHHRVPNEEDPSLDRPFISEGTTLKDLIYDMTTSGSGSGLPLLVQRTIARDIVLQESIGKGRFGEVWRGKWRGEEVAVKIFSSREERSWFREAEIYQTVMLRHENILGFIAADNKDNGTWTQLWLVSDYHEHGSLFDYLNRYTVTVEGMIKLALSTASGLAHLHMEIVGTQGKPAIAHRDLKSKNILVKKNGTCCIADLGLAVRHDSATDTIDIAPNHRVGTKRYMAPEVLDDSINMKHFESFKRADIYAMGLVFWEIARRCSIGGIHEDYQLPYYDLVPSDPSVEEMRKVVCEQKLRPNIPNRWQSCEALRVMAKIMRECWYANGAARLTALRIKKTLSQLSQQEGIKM
# Assay: HTRF probe-displacement assay with HIS-TGFβR1 T204D
# Format: binding
# Details: 1 nM HIS-TGFβR1 T204D, labeled probe at Kd, 1 hour at room temperature
# Method: The reaction is incubated for 1 hour at room temperature and the HTRF signal was measured on an Envision plate reader (Ex: 340 nm; Em: 520 nm/495 nm). Inhibition data were calculated by comparison to no enzyme control reactions for 100% inhibition and vehicle-only reactions for 0% inhibition. The final concentration of reagents in the assay are 1 nM HIS-TGFβR1 T204D or HIS-TGFβR2 WT, 0.2 nM anti-HIS detection antibody, labeled small molecule probe (at Kd) and 0.5% DMSO. Dose response curves were generated to determine the concentration required inhibiting 50% of kinase activity (IC50). Compounds were dissolved at 10 mM in dimethylsulfoxide (DMSO) and evaluated at eleven concentrations. IC50 values were derived by non-linear regression analysis.
row,IC50,SMILES
1,0.001 µM,"N#Cc1cnc2ccc(-c3c[nH]nc3-c3cccc(C(F)(F)F)n3)cn12 [Example 1, 6-(3-(6-(trifluoromethyl)pyridin-2-yl)-1H-pyrazol-4-yl)imidazo[1,2-a]pyridine-3-carbonitrile]"
2,0.008 µM,"N#Cc1cnc2ccc(-c3cn(CC(F)F)nc3-c3cccc(C(F)(F)F)n3)cn12 [Example 7, 6-(1-(2,2-difluoroethyl)-3-(6-(trifluoromethyl)pyridin-2-yl)-1H-pyrazol-4-yl)imidazo[1,2-a]pyridine-3-carbonitrile]"
3,0.006 µM,"NC(=O)c1cnc2ccc(-c3cn(CC(F)F)nc3-c3cccc(C(F)(F)F)n3)cn12 [Example 8, 6-(1-(2,2-difluoroethyl)-3-(6-(trifluoromethyl)pyridin-2-yl)-1H-pyrazol-4-yl)imidazo[1,2-a]pyridine-3-carboxamide]"
4,0.024 µM,"Cn1cc(-c2ccc3ncc(C#N)n3c2)c(-c2cccc(C(F)(F)F)n2)n1 [Example 9, 6-(1-methyl-3-(6-(trifluoromethyl)pyridin-2-yl)-1H-pyrazol-4-yl)imidazo[1,2-a]pyridine-3-carbonitrile]"
5,0.007 µM,Cc1cccc(-c2nn(C)cc2-c2ccc3ncc(C(C)(C)O)n3c2)n1 [Example 52]
6,0.03 µM,"Cc1cccc(-c2nn(C)cc2-c2ccc3ncc(NC(C)(C)C)n3c2)n1 [Example 53, N-(tert-butyl)-6-(1-methyl-3-(6-methylpyridin-2-yl)-1H-pyrazol-4-yl)imidazo[1,2-a]pyridin-3-amine]"
7,0.025 µM,"CC(=O)Nc1cnc2ccc(-c3c[nH]nc3-c3ccc(F)cc3)nn12 [Example 58, N-(6-(3-(4-fluorophenyl)-1H-pyrazol-4-yl)imidazo[1,2-b]pyridazin-3-yl)acetamide]"
8,9.86 µM,"CC(C)c1nn(C)c(-c2ccc(F)cc2)c1-c1ccc2ncc(C(C)(C)O)n2c1 [Example 73, 2-(6-(5-(4-fluorophenyl)-3-isopropyl-1-methyl-1H-pyrazol-4-yl)imidazo[1,2-a]pyridin-3-yl)propan-2-ol]"
9,0.054 µM,"CC(C)c1[nH]nc(-c2ccc(Cl)cc2)c1-c1ccc2ncc(C#N)n2c1 [Example 75, 6-(3-(4-chlorophenyl)-5-isopropyl-1H-pyrazol-4-yl)imidazo[1,2-a]pyridine-3-carbonitrile]"
10,0.144 µM,"CC(C)c1[nH]nc(-c2ccc(Cl)cc2)c1-c1ccc2nccn2c1 [Example 77, 6-(3-(4-chlorophenyl)-5-isopropyl-1H-pyrazol-4-yl)imidazo[1,2-a]pyridine]"
11,0.001 µM,"Cc1cc(-c2n[nH]c(C(C)C)c2-c2ccc3nccn3c2)ccc1F [Example 80, 6-(3-(4-fluoro-3-methylphenyl)-5-isopropyl-1H-pyrazol-4-yl)imidazo[1,2-a]pyridine]"
12,0.017 µM,"CCc1[nH]nc(-c2ccc(F)cc2)c1-c1ccc2nccn2c1 [Example 83, 6-(5-ethyl-3-(4-fluorophenyl)-1H-pyrazol-4-yl)imidazo[1,2-a]pyridine]"
13,0.01 µM,"CC(C)(O)c1cnc2ccc(-c3c(-c4ccc(F)cc4)n[nH]c3C3CC3)cn12 [Example 89, 2-(6-(5-cyclopropyl-3-(4-fluorophenyl)-1H-pyrazol-4-yl)imidazo[1,2-a]pyridin-3-yl)propan-2-ol]"
14,0.008 µM,"CC(O)c1cnc2ccc(-c3c(-c4ccc(F)cc4)n[nH]c3C3CC3)cn12 (stereo not drawn) [Example 91, 1-(6-(5-cyclopropyl-3-(4-fluorophenyl)-1H-pyrazol-4-yl)imidazo[1,2-a]pyridin-3-yl)ethanol]"
15,0.147 µM,"Fc1ccc(-c2n[nH]c(C(F)(F)F)c2-c2ccc3nccn3c2)cc1 [Example 107, 6-(3-(4-fluorophenyl)-5-(trifluoromethyl)-1H-pyrazol-4-yl)imidazo[1,2-a]pyridine]"
16,1.13 µM,"Cn1nc(C(F)(F)F)c(-c2ccc3ncc(C(N)=O)n3c2)c1-c1ccc(F)cc1 [Example 109, 6-(5-(4-fluorophenyl)-1-methyl-3-(trifluoromethyl)-1H-pyrazol-4-yl)imidazo[1,2-a]pyridine-3-carboxamide]"

# Second part, the compound before the results:
row,SMILES,IC50
1,"FC(F)(F)c1cccc(-c2n[nH]cc2-c2ccc3nccn3c2)n1 [Example 3, 6-(3-(6-(trifluoromethyl)pyridin-2-yl)-1H-pyrazol-4-yl)imidazo[1,2-a]pyridine]",0.001 µM
2,"O=C(Nc1cnc2ccc(-c3c[nH]nc3-c3ccc(F)cc3)cn12)C(F)(F)F [Example 16, 2,2,2-trifluoro-N-(6-(3-(4-fluorophenyl)-1H-pyrazol-4-yl)imidazo[1,2-a]pyridin-3-yl)acetamide]",0.187 µM
3,"Nc1cc(-c2c[nH]nc2-c2ccc(F)cc2)cn2ccnc12 [Example 32, 6-(3-(4-fluorophenyl)-1H-pyrazol-4-yl)imidazo[1,2-a]pyridin-8-amine]",0.465 µM
4,Cc1cccc(-c2nn(C)cc2-c2ccc3ncc(NC(=O)C(F)(F)F)n3c2)n1 [Example 54],0.079 µM
5,"O=C(O)c1cnc2ccc(-c3c[nH]nc3-c3ccc(F)cc3)cn12 [Example 60, 6-(3-(4-fluorophenyl)-1H-pyrazol-4-yl)imidazo[1,2-a]pyridine-3-carboxylic acid]",0.012 µM
6,"CC(C)c1[nH]nc(-c2ccc(F)cc2)c1-c1ccc2nccn2c1 [Example 69, 6-(3-(4-fluorophenyl)-5-isopropyl-1H-pyrazol-4-yl)imidazo [1,2-a]pyridine]",0.007 µM
7,CC(C)c1nn(C)c(-c2ccc(F)cc2)c1-c1ccc2ncc(C(N)=O)n2c1 [Example 71],0.145 µM
8,"CC(C)c1c(-c2ccc3ncc(C(C)(C)O)n3c2)c(-c2ccc(F)cc2)nn1C [Example 74, 2-(6-(3-(4-fluorophenyl)-5-isopropyl-1-methyl-1H-pyrazol-4-yl)imidazo[1,2-a]pyridin-3-yl)propan-2-ol]",0.374 µM
9,"CCc1[nH]nc(-c2ccc(F)cc2)c1-c1ccc2ncc(C#N)n2c1 [Example 81, 6-(5-ethyl-3-(4-fluorophenyl)-1H-pyrazol-4-yl)imidazo[1,2-a]pyridine-3-carbonitrile]",0.006 µM
10,"OCc1cnc2ccc(-c3c(-c4ccc(F)cc4)n[nH]c3C3CC3)cn12 [Example 90, (6-(5-cyclopropyl-3-(4-fluorophenyl)-1H-pyrazol-4-yl)imidazo[1,2-a]pyridin-3-yl)methanol]",0.004 µM
11,"Cn1nc(C2CC2)c(-c2ccc3ncc(C(N)=O)n3c2)c1-c1ccc(F)cc1 [Example 95, 6-(3-cyclopropyl-5-(4-fluorophenyl)-1-methyl-1H-pyrazol-4-yl)imidazo[1,2-a]pyridine-3-carboxamide]",0.058 µM
12,"N#Cc1cnc2ccc(-c3c(-c4ccc(Cl)cc4)n[nH]c3C3CC3)cn12 [Example 96, 6-(3-(4-chlorophenyl)-5-cyclopropyl-1H-pyrazol-4-yl)imidazo[1,2-a]pyridine-3-carbonitrile]",0.07 µM
13,"Clc1ccc(-c2n[nH]c(C3CC3)c2-c2ccc3nccn3c2)cc1 [Example 98, 6-(3-(4-chlorophenyl)-5-cyclopropyl-1H-pyrazol-4-yl)imidazo[1,2-a]pyridine]",0.05 µM
14,"Cc1cc(-c2n[nH]c(C3CC3)c2-c2ccc3nccn3c2)ccc1F [Example 101, 6-(5-cyclopropyl-3-(4-fluoro-3-methylphenyl)-1H-pyrazol-4-yl)imidazo[1,2-a]pyridine]",0.001 µM
15,"Fc1ccc(-c2n[nH]c(C3CC3)c2-c2ccc3ncc(F)n3c2)cc1 [Example 102, 6-(5-cyclopropyl-3-(4-fluorophenyl)-1H-pyrazol-4-yl)-3-fluoroimidazo[1,2-a]pyridine]",0.014 µM
16,"Cn1nc(C2CC2)c(-c2ccc3ncc(F)n3c2)c1-c1ccc(F)cc1 [Example 104, 6-(3-cyclopropyl-5-(4-fluorophenyl)-1-methyl-1H-pyrazol-4-yl)-3-fluoroimidazo[1,2-a]pyridine]",2.24 µM
17,"N#Cc1cnc2ccc(-c3c(-c4ccc(F)cc4)n[nH]c3C(F)(F)F)cn12 [Example 105, 6-(3-(4-fluorophenyl)-5-(trifluoromethyl)-1H-pyrazol-4-yl)imidazo[1,2-a]pyridine-3-carbonitrile]",0.041 µM
18,"Cn1nc(-c2ccc(F)cc2)c(-c2ccc3ncc(C(N)=O)n3c2)c1C(F)(F)F [Example 108, 6-(3-(4-fluorophenyl)-1-methyl-5-(trifluoromethyl)-1H-pyrazol-4-yl)imidazo[1,2-a]pyridine-3-carboxamide]",0.022 µM
19,"N#Cc1cnc2ccc(-c3c(-c4ccc(F)cc4)nn4c3COCC4)cn12 [Example 110, 6-(2-(4-fluorophenyl)-6,7-dihydro-4H-pyrazolo[5,1-c][1,4]oxazin-3-yl)imidazo[1,2-a]pyridine-3-carbonitrile]",0.173 µM
20,"CC(C)(O)c1cnc2ccc(-c3c(-c4ccc(F)cc4)nn4c3COCC4)cn12 [Example 113, 2-(6-(2-(4-fluorophenyl)-6,7-dihydro-4H-pyrazolo[5,1-c][1,4]oxazin-3-yl)imidazo[1,2-a]pyridin-3-yl)propan-2-ol]",3.81 µM
